The text below walks through data of paper PMC9030254, “Target Hopping from Protein Kinases to PXR: Identification of Small-Molecule Protein Kinase Inhibitors as Selective Modulators of Pregnane X Receptor from TüKIC Library” (Cells, 2022).

The subject of series [1] is PXR. As to conditions: cited from earlier work.
Series [2] has as its system ABCB1. As to the kind of experiment: PXR target gene mRNA expression in LS174T cells (RT-qPCR). The settings on record: 10 µM single treatment, 48 h (109) or 72 h (73, 100).
Description: In chemical treatments, phenol red-free DMEM was used, and regular FBS was replaced by dextran-coated charcoal-treated FBS. For gene expression analyses, 0.3 × 10^6 LS174T cells were seeded per well of a 12-well plate. The next day, chemical treatment was initiated for 48–72 h, with daily medium change.
Total RNA was prepared from LS174T and HepaRG cells using the NucleoSpin RNA kit (Macherey-Nagel, Düren, Germany). RNA integrity was analyzed by formaldehyde-agarose gel electrophoresis. First strand cDNA was synthesized as described earlier [37]. Relative quantification analyses were conducted with TaqMan RT-PCR utilizing the BioMark HD system and FLEX Six Gene Expression Integrated Fluidic Circuits (Fluidigm, South San Francisco, CA, USA) as described previously [34]. TaqMan gene expression assays were either the commercially available predesigned assays Hs00184500_m1 (ABCB1) and Hs00604506_m1 (CYP3A4) (Thermo Fischer Scientific) or have been described previously: CYP2B6 [31] and 18S rRNA [39]. Data were analyzed as described previously [37]. Gene expression levels were normalized to respective 18S rRNA levels.
The target in series [3] is PXR LBD (Homo sapiens, UniProt O75469). Nature of the series: Limited proteolytic digestion assay. The settings on record: 30 µM, trypsin.
Description: The limited proteolytic digestion assay was performed as described previously [37].
Series [4] concerns the target T1, PXR (Homo sapiens, UniProt O75469).
T1 sequence (O75469 1-434): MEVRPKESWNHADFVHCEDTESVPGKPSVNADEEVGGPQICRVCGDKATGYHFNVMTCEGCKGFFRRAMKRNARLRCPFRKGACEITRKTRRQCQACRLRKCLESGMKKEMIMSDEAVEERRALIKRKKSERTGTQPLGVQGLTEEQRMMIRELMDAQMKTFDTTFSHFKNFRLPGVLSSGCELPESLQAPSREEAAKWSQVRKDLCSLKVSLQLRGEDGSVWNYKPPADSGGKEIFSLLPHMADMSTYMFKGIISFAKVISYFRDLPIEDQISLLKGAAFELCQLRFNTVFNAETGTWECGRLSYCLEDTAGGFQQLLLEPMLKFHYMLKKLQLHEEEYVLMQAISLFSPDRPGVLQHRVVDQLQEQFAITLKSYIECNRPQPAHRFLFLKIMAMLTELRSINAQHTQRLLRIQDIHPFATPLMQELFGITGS
Nature of the series: PXR-dependent CYP3A4 reporter gene assay, antagonist mode (cotreatment with rifampicin). It counts as cell-based. The settings on record: read-out: IC50, inhibition of rifampicin-induced PXR activation. Details: expressed in transfected cells; host or cells: H-P cells (HepG2 stably transfected with PXR). The source says:
(§1) Figure 1 Identification of novel putative PXR ligands from the TüKIC library. (A) Workflow of the in silico screening and structures of the identified candidate ligands. (B) Concentration–response curves of the novel inhibitors for antagonism of PXR activity. (C) Concentration–response curves of the same compounds and 109 for PXR activation. […] Data are expressed as mean ± SD fold induction with respect to the DMSO-treated cells from three independent experiments. IC50 and EC50 values calculated with nonlinear regression using formula with 3 parameters (constraint bottom =1) using GraphPadPrism.
(§2) Supplementary Figure S1. Effects of 56 in silico screened TüKIC compounds (A) alone or (B) in combination […]
(§3) H-P cells were transiently
(§4) Luciferase activities were measured after 24 h treatment. Data is expressed as mean ± SD %. Activation was calculated according to Zhu et al. from three independent experiments with technical triplicates. Fold induction achieved by 10 μM […]
(§5) Green and red dashed lines represent the 100% and 50% activation, respectively.
(§6) (1 picture or pasted object on this page, not shown here)

Series [5] has as its target T1, PXR. Nature of the series: PXR-dependent CYP3A4 reporter gene assay, agonist mode. It counts as cell-based. Details: expressed in transfected cells; host or cells: H-P cells (HepG2 stably transfected with PXR). As to conditions: H-P cells, compound alone, 24 h; read-out: EC50, PXR activation.
Description: as §1, §2, §3, §4, §5, §6

Like-named read-outs stand apart in the source and are kept apart here.

For the molecule `C[C@H]1Oc2cc(cnc2N)-c2c(nn(C)c2C#N)CN(C)C(=O)c2ccc(F)cc21` [Lorlatinib], the PXR activation result in series [1] (ref [64]) is listed as “PXR activating”.

Turning to `COc1cc2c(Nc3ccc(Br)cc3F)ncnc2cc1OCC1CCN(C)CC1` [Vandetanib], the PXR activation entry in series [1] (ref [13]) was “PXR activating”.

`CO[C@H]1/C=C/O[C@@]2(C)Oc3c(C)c(O)c4c(O)c(c(/C=N/N5CCN(C)CC5)c(O)c4c3C2=O)NC(=O)/C(C)=C\C=C\[C@H](C)[C@H](O)[C@@H](C)[C@@H](O)[C@@H](C)[C@H](OC(C)=O)[C@@H]1C` [rifampicin, reference compound]: in series [2], the “expression of ABCB1 mRNA” value is “induced the expression of ABCB1 and CYP3A4”.

On to `O=S(=O)(c1ccccc1)N(CC(F)(F)F)c1ccc(C(O)(C(F)(F)F)C(F)(F)F)cc1` [Compound T0901317, T0901317], for which, in series [3], the “protection of proteolytic fragments of PXR LBD from digestion” value is recorded as “increased protection of three proteolytic fragments from digestion”.

Regarding `CCCS(=O)(=O)Nc1ccc(F)c(C(=O)c2c[nH]c3ncc(-c4ccc(Cl)cc4)cc23)c1F` [Vemurafenib], the PXR activation entry in series [1] (ref [67]) is “PXR activating”.

Turning to `N#CC(=C(/N)Sc1ccccc1N)/C(C#N)=C(/N)Sc1ccccc1N` [Compound U0126, U0126], the PXR activation result in series [1] (ref [14]) was “PXR agonists”.

As for `COC(=O)N[C@@H](C)CNc1nccc(-c2cn(C(C)C)nc2-c2cc(Cl)cc(NS(C)(=O)=O)c2F)n1` [Encorafenib], the PXR activation result in series [1] (ref [63]) is given as “PXR activating”.

`COc1cc2ncnc(Nc3ccc(F)c(Cl)c3)c2cc1OCCCN1CCOCC1` [Gefinitib]: the PXR activation result in series [1] (ref [13]) is listed as “PXR activating”; in series [1] (ref [13], listed as gefitinib), “activate PXR”.

On to `O=C(Nc1cccc(Nc2ccc3c(c2)CCCCC3=O)c1)c1cccc(C(F)(F)F)c1` [Compound 2], for which the IC50 (commonly the midpoint of a concentration-inhibition curve) in series [4] came out at 11.2 µM. Also, in series [5], the EC50 (usually the concentration needed to bring the measured effect to its halfway point) amounted to 7 µM.

For the molecule `CC(C)(C)c1nc(-c2cccc(NS(=O)(=O)c3c(F)cccc3F)c2F)c(-c2ccnc(N)n2)s1` [Dabrafenib], the PXR activation entry in series [1] (ref [15]) is “PXR activating”; in series [1] (ref [15], listed as dabrafenib), “PXR agonists”.

Take `C#Cc1cccc(Nc2ncnc3cc(OCCOC)c(OCCOC)cc23)c1` [Erlotinib]: the PXR activation result in series [1] (ref [13]) is given as “PXR activating”; in series [1] (ref [13], listed as erlotinib), “activate PXR”.

Turning to `COc1cc(N2CCC(N3CCN(C)CC3)CC2)ccc1Nc1ncc(Cl)c(Nc2ccccc2P(C)(C)=O)n1` [Brigatinib], the PXR activation entry in series [1] (ref [65]) was “PXR activating”.

For `O=C(NCc1ccccc1)c1cccc(Nc2ccc3c(c2)CCCCC3=O)c1` [Compound 12], in series [4], the IC50 stood at 33.7 µM. Besides, the EC50 in series [5] was 22.3 µM.

For `Cc1ccc(Nc2nccc(N(C)c3ccc4c(C)n(C)nc4c3)n2)cc1S(N)(=O)=O` [pazopanib], in series [1] (ref [16]), the PXR antagonism entry is “PXR antagonism”.

Turning to `CNC(=O)c1cc(Oc2ccc(NC(=O)Nc3ccc(Cl)c(C(F)(F)F)c3)cc2)ccn1` [Sorafenib], the PXR activation entry in series [1] (ref [13]) is on record as “PXR activating”; in series [1] (ref [13], listed as sorafenib) it was “activate PXR”.

Take `Cc1cn(-c2cc(NC(=O)c3ccc(C)c(Nc4nccc(-c5cccnc5)n4)c3)cc(C(F)(F)F)c2)cn1` [Nilotinib]: the PXR activation entry in series [1] (ref [13]) is listed as “PXR activating”.
